{"source": "paper PMC3435245", "about": "“D-Alanylation of Lipoteichoic Acids Confers Resistance to Cationic Peptides in Group B Streptococcus by Increasing the Cell Wall Density” (PLoS Pathogens, 2012)", "key": {"GBS WT strain": {"tested_on": "GBS WT strain", "test": "Rhodamine-labeled peptide fluorescence self-quenching on addition of bacteria (aggregation), WT", "format": "cell-based, Streptococcus agalactiae", "conditions": "rhodamine-labeled peptide 1 µM, self-quenching (aggregation) relative to basal signal of the peptide after addition of bacteria, room temperature; means of triplicate measurements from two independent experiments", "from_the_text": "(§1) We further investigated whether the increased cell wall density resulting from D-alanylation of LTAs can reduce CAMPs penetration through the cell wall barrier by following the interaction of fluorescently labeled CAMPs with intact bacteria. […] Here, we investigated if the peptides display different aggregation states when bound to the WT or the dltA mutant strains. This was done by monitoring changes in the signal intensity of rhodamine-labeled peptides following their interaction with the bacterial surface under under high (160 mM NaCl) and low (16 mM NaCl) ionic strength conditions. Addition of bacteria to the rhodamine-labeled peptides induced self-quenching of fluorescence for all tested peptides. However, no significant difference in aggregation was found in the WT compared to the dltA strain (Figure 7A and Table 3).\nReal time tracking of the changes in the fluorescent signal of rhodamine or NBD labeled peptides was performed using an SLM-Aminco Bowman series 2-luminescence spectrophotometer (SLM-Aminco, Rochester, NY, USA) at room temperature. Typical spectral bandwidths were 5 nm for excitation and 5 nm for emission. […] Following signal stabilization, bacterial suspension (10 µl, OD600 nm adjusted to 4) or liposomes suspension (100 µM lipid final concentration) composed of cardiolipid/PG (1∶1 M/M) was added to the cuvette and the change in signal was monitored over time."}, "GBS dltA mutant": {"tested_on": "GBS dltA mutant", "test": "Rhodamine-labeled peptide fluorescence self-quenching on addition of bacteria (aggregation), dltA", "format": "cell-based, Streptococcus agalactiae", "conditions": "rhodamine-labeled peptide 1 µM", "from_the_text": "as §1\nReal time tracking of the changes in the fluorescent signal of rhodamine or NBD labeled peptides was performed using an SLM-Aminco Bowman series 2-luminescence spectrophotometer (SLM-Aminco, Rochester, NY, USA) at room temperature. Typical spectral bandwidths were 5 nm for excitation and 5 nm for emission. […] The peptides were placed in a 5×5-mm quartz cuvette with constant magnetic stirring. Following signal stabilization, bacterial suspension (10 µl, OD600 nm adjusted to 4) or liposomes suspension (100 µM lipid final concentration) composed of cardiolipid/PG (1∶1 M/M) was added to the cuvette and the change in signal was monitored over time."}, "GBS NEM316 WT strain": {"tested_on": "GBS NEM316 WT strain", "format": "cell-based, Streptococcus agalactiae", "conditions": "Todd-Hewitt broth with 100 mM HEPES, 2×10^6 CFU, 96-well polypropylene microplate, overnight 37°C, OD600 nm; average of triplicate measurements", "description": "(§2) The MICs of each antimicrobial peptide were tested in Todd-Hewitt broth (THB) buffered with 100 mM HEPES in 96-well polypropylene microplates (Costar, Cambridge, MA) by a dilution method. Bacteria (2×10^6 CFU) were added in triplicates to wells containing increasing concentrations of the antimicrobial peptides. Plates were incubated at 37°C with shaking overnight and then read (OD600 nm) using microplate reader (Labsystems Multiskanat) for bacterial growth. The MICs90 was considered to be the peptide concentration that inhibited 90% growth."}, "GBS ΔdltA mutant": {"tested_on": "GBS ΔdltA mutant", "test": "MIC90 by dilution method, GBS ΔdltA", "format": "cell-based, Streptococcus agalactiae", "conditions": "Todd-Hewitt broth with 100 mM HEPES, 2×10^6 CFU, 96-well polypropylene microplate, overnight 37°C, OD600 nm; average of triplicate measurements", "description": "as §2"}, "GBS ΔmprF mutant": {"tested_on": "GBS ΔmprF mutant", "test": "MIC90 by dilution method, GBS ΔmprF", "format": "cell-based, Streptococcus agalactiae", "conditions": "Todd-Hewitt broth with 100 mM HEPES, 2×10^6 CFU, 96-well polypropylene microplate, overnight 37°C, OD600 nm; average of triplicate measurements", "description": "as §2"}, "GBS Δlgt Δlsp mutant": {"tested_on": "GBS Δlgt Δlsp mutant", "test": "MIC90 by dilution method, GBS Δlgt Δlsp", "format": "cell-based, Streptococcus agalactiae", "conditions": "Todd-Hewitt broth with 100 mM HEPES, 2×10^6 CFU, 96-well polypropylene microplate, overnight 37°C, OD600 nm; average of triplicate measurements", "description": "as §2"}, "GBS ΔcpsD mutant": {"tested_on": "GBS ΔcpsD mutant", "test": "MIC90 by dilution method, GBS ΔcpsD", "format": "cell-based, Streptococcus agalactiae", "conditions": "Todd-Hewitt broth with 100 mM HEPES, 2×10^6 CFU, 96-well polypropylene microplate, overnight 37°C, OD600 nm; average of triplicate measurements", "description": "as §2"}, "GBS ΔsrtA mutant": {"tested_on": "GBS ΔsrtA mutant", "test": "MIC90 by dilution method, GBS ΔsrtA", "format": "cell-based, Streptococcus agalactiae", "conditions": "Todd-Hewitt broth with 100 mM HEPES, 2×10^6 CFU, 96-well polypropylene microplate, overnight 37°C, OD600 nm; average of triplicate measurements", "description": "as §2"}, "[1]": {"test": "RP-HPLC hydrophobicity (% AcN at elution)", "format": "physicochemical", "conditions": "chromatographic, C4 reverse analytical column; eluted in 40 min, linear gradient of acetonitrile 30 to 70% v/v in water containing TFA (0.05% v/v)", "description": "The procedure conducted as described previously. Briefly, peptides were synthesized using the Fmoc solid phase method on Rink amide resin ([…]). For fluorescent labeling of the N-terminus of the peptides, resin-bound peptides were treated with NBD or rhodamine dissolved in dimethyl formamide (DMF), washed thoroughly with DMF and then with methylene chloride, dried and then cleaved. […] The peptides were subjected to amino acid and mass spectrometry analysis to confirm their composition."}, "[2]": {"conditions": "self-quenching (aggregation) relative to basal signal of the peptide after addition of bacteria, room temperature, means of triplicate measurements from two independent experiments"}}, "note": "Marks after values point to notes of the source that are not given here. Where a SMILES comes first, the peptide text is derived from it.", "data": [{"molecule": "Rho-LL37: rhodamine-labeled LL37 (N-terminus)", "values": [{"measurement": "Signal change [%], NaCl (16 mM), WT", "setting": "GBS WT strain", "result": "−60.8", "unit": "%"}, {"measurement": "Signal change [%], NaCl (160 mM), WT", "setting": "GBS WT strain", "result": "−26.6", "unit": "%"}, {"measurement": "Signal change [%], NaCl (16 mM), dltA", "setting": "GBS dltA mutant; [2]", "result": "−58.6", "unit": "%"}, {"measurement": "Signal change [%], NaCl (160 mM), dltA", "setting": "GBS dltA mutant; [2]", "result": "−32.7 ^c %"}, {"measurement": "Difference in signal change [%], NaCl (160 mM), Δ(dltA-WT)", "setting": "GBS dltA mutant; difference in the signal change between dltA strain to the WT strain", "result": 6.1, "unit": "%"}]}, {"molecule": "CC(C)C[C@H](NC(=O)[C@H](CCCCN)NC(=O)[C@H](CCCCN)NC(=O)[C@H](CCCCN)NC(=O)[C@H](CC(C)C)NC(=O)[C@H](CCCCN)NC(=O)[C@H](CCCCN)NC(=O)[C@H](CC(C)C)NC(=O)[C@H](CC(C)C)NC(=O)[C@H](CCCCN)NC(=O)[C@H](CCCCN)NC(=O)[C@H](CC(C)C)NC(=O)[C@H](CCCCN)NC(=O)[C@H](CCCCN)NC(=O)[C@@H](N)CC(C)C)C(N)=O", "note": "[K9L6] (H-LKKLKKLLKKLKKKL-NH2)", "values": [{"measurement": "MIC90, WT", "setting": "GBS NEM316 WT strain", "result": 25, "unit": "µM"}, {"measurement": "MIC90, ΔdltA", "setting": "GBS ΔdltA mutant", "result": 25, "unit": "µM"}]}, {"molecule": "CC[C@H](C)[C@H](NC(=O)[C@H](CCCCN)NC(=O)[C@H](CCC(=O)O)NC(=O)[C@H](CCCCN)NC(=O)[C@H](CO)NC(=O)[C@H](CCCCN)NC(=O)[C@H](CCCNC(=N)N)NC(=O)[C@H](Cc1ccccc1)NC(=O)[C@H](Cc1ccccc1)NC(=O)[C@H](CC(=O)O)NC(=O)CNC(=O)[C@H](CC(C)C)NC(=O)[C@@H](N)CC(C)C)C(=O)NCC(=O)N[C@@H](CCCCN)C(=O)N[C@@H](CCC(=O)O)C(=O)N[C@@H](Cc1ccccc1)C(=O)N[C@@H](CCCCN)C(=O)N[C@@H](CCCNC(=N)N)C(=O)N[C@H](C(=O)N[C@H](C(=O)N[C@@H](CCC(N)=O)C(=O)N[C@@H](CCCNC(=N)N)C(=O)N[C@H](C(=O)N[C@@H](CCCCN)C(=O)N[C@@H](CC(=O)O)C(=O)N[C@@H](Cc1ccccc1)C(=O)N[C@@H](CC(C)C)C(=O)N[C@@H](CCCNC(=N)N)C(=O)N[C@@H](CC(N)=O)C(=O)N[C@@H](CC(C)C)C(=O)N[C@H](C(=O)N1CCC[C@H]1C(=O)N[C@@H](CCCNC(=N)N)C(=O)N[C@H](C(=O)N[C@@H](CCC(=O)O)C(=O)N[C@@H](CO)C(N)=O)[C@@H](C)O)C(C)C)[C@@H](C)CC)C(C)C)[C@@H](C)CC", "note": "[LL-37]", "values": [{"measurement": "MIC90, WT", "setting": "GBS NEM316 WT strain", "result": ">14.2", "unit": "µM"}, {"measurement": "MIC90, ΔdltA", "setting": "GBS ΔdltA mutant", "result": 3.6, "unit": "µM"}, {"measurement": "MIC90, ΔmprF", "setting": "GBS ΔmprF mutant", "result": ">14.2", "unit": "µM"}, {"measurement": "MIC90, Δlgt Δlsp", "setting": "GBS Δlgt Δlsp mutant", "result": ">14.2", "unit": "µM"}, {"measurement": "MIC90, ΔcpsD", "setting": "GBS ΔcpsD mutant", "result": ">14.2", "unit": "µM"}, {"measurement": "MIC90, ΔsrtA", "setting": "GBS ΔsrtA mutant", "result": ">14.2", "unit": "µM"}]}, {"molecule": "CH3(CH2)6CO-KKLLKLLLKLLK-NH2 [C8-K5L7, lipopeptide: K5L7 coupled to a short fatty acid]", "values": [{"measurement": "Hydrophobicity (% AcN)", "setting": "[1]", "result": 61.4, "unit": "% AcN"}, {"measurement": "MIC90, WT", "setting": "GBS NEM316 WT strain", "result": 3, "unit": "µM"}, {"measurement": "MIC90, ΔdltA", "setting": "GBS ΔdltA mutant", "result": 3, "unit": "µM"}]}, {"molecule": "CC[C@H](C)[C@H](NC(=O)CN)C(=O)NCC(=O)N[C@@H](CCCCN)C(=O)N[C@@H](Cc1ccccc1)C(=O)N[C@@H](CC(C)C)C(=O)N[C@@H](Cc1c[nH]cn1)C(=O)N[C@@H](CO)C(=O)N[C@@H](C)C(=O)N[C@@H](CCCCN)C(=O)N[C@@H](CCCCN)C(=O)N[C@@H](Cc1ccccc1)C(=O)NCC(=O)N[C@@H](CCCCN)C(=O)N[C@@H](C)C(=O)N[C@@H](Cc1ccccc1)C(=O)N[C@H](C(=O)NCC(=O)N[C@@H](CCC(=O)O)C(=O)N[C@H](C(=O)N[C@@H](CCSC)C(=O)N[C@@H](CC(N)=O)C(=O)N[C@@H](CO)C(N)=O)[C@@H](C)CC)C(C)C", "note": "[Magainin 2] (H-GIGKFLHSAKKFGKAFVGEIMNS-NH2)", "values": [{"measurement": "MIC90, WT", "setting": "GBS NEM316 WT strain", "result": ">25.5", "unit": "µM"}, {"measurement": "MIC90, ΔdltA", "setting": "GBS ΔdltA mutant", "result": 6.4, "unit": "µM"}, {"measurement": "MIC90, ΔmprF", "setting": "GBS ΔmprF mutant", "result": ">25.5", "unit": "µM"}, {"measurement": "MIC90, Δlgt Δlsp", "setting": "GBS Δlgt Δlsp mutant", "result": ">25.5", "unit": "µM"}, {"measurement": "MIC90, ΔcpsD", "setting": "GBS ΔcpsD mutant", "result": ">25.5", "unit": "µM"}, {"measurement": "MIC90, ΔsrtA", "setting": "GBS ΔsrtA mutant", "result": ">25.5", "unit": "µM"}]}]}
